The values below come from patent US10450317B2, “Notch pathway signaling inhibitor compounds” (Eli Lilly and Company, priority 2015, dated 2019).

As usually defined, the IC50 is the concentration that gives 50% inhibition.

Data set [1] concerns mouse Notch1. Put plainly: Notch1 N1ICD nuclear accumulation cellular imaging assay. The class given is cell-based. The following applies: HEK293ΔE12 cells, 24 hours treatment, n=2; read-out: average IC50 for the nuclear N1ICD signal. The procedure: (§1) HEK293ΔE12 cells (HEK293 cells are engineered to stably express mouse Notch1 cDNA coding for amino acid 1703-2183, Np_932740.3, (Full length mouse Notch 1 protein precursor: SEQ ID NO:1) with 23 amino acid signal peptide sequence, […] (SEQ ID NO:2), at its N-terminus) are plated at 5000 cells/well in 96 well plates, incubated in Dulbecco's Modified. Eagle's Medium (DMEM)-high glucose with 5% fetal bovine serum (FBS) at 37° C., 5% CO2 for 24 hours. Cells are treated with test compound, dosing at 10 points of 1:3 dilutions across the range of 1000 nM to 0.05 nM, and with final dimethyl sulfoxide (DMSO) concentration at 0.2%. […] Plates are scanned with ACUMEN EXPLORER™ Laser-scanning fluorescence microplate cytometer (TTP LABTECH LTD) to measure total cell nuclear count/well and total nuclear area/well with fluorescence at 655 nm-705 nm (emission of DNA bound propidium iodide) and fluorescence of antibody binding to N1ICD in nuclear region at 505 nm-530 nm. The main assay output is a ratio of total fluorescence of nuclear N1ICD to total nuclear area, the normalized nuclear N1ICD signal. […] Concentration response and the IC50 are determined by curve fitting to a four parameter logistic for the nuclear N1ICD signal, while the % cell number is plotted in the same graph for cytotoxicity profiling.

Data set [2] deals with HEK293ΔE12 cells. The data set is described as follows: Relative cytotoxicity profiling (% cell number) in the N1ICD imaging assay. The class given is cell-based, human. The following applies: up to 1000 nM concentration, 24 hours treatment. The protocol: as §1
Data set [3] has as its system mAtoh1. Put plainly: Induction of mAtoh1 expression in otic spheres (qRT-PCR). The following applies: 7 days, fold-induction relative to DMSO control, ± SEM. The class given is cell-based, mice. The procedure:
Generally, organ of Corti cell isolation is carried out on Day 0, largely by the method in Oshima et al., Methods Mol Biol., 2009; 493: 141-162. Cell culture and propagation are carried out for 3-4 days. Cell plating and test compound treatment takes place on Day 3 or 4. Attachment and differentiation is allowed to take place over the next 7 days. On Days 10 or 11, cell lysis and RNA isolation is carried out. TagMan qRT-PCR is carried out on Day 12 and the results analyzed on Days 13-15 for Atoh1 and Tbp1 expression.
Surrounding tissue from the petrous portion of the temporal bone are removed from 1 to 4 day-old postnatal mice (transgenic strain: mAtoh1-driven nGFP; Lumpkin E A, et al., Gene Expr Patterns, 2003; (36): 389-95 of both sexes. The conch shaped cochlea is separated from the vestibular system using forceps. At this stage of development, the bony labyrinth is not completely calcified and is easily dissected using forceps. Carefully open the bony labyrinth of the cochlea and remove the spiral ligament and attached organ of Corti coiled together along the spiral of the modiolus by unwinding apically from the modiolus. Starting at the base, separate the spiral ligament from the organ of Corti using fine forceps.
Transfer the dissected organ of Corti (OC) into individual 1.5 ml tubes filled with 850 ice cold HBSS. Transfer up to 12 OC tissues into the same tube, Quick-spin down OC tissues and remove the HBSS. Disassociate the cells by adding 100 μl pre-warmed TrypLE™ Select (Life Technologies) and incubate at 37° C. for 13 min. Quick spin down dissociated OC tissues. Remove TrypLE™ Select. Add 100 μl of Medium A (DMEM/F12, N2 supplement (LifeTechnologies), B27 supplement (LifeTechnologies), ampicillin (50 μg/ml) and Fungizone (LifeTechnologies), EGF (20 ng/ml), bFGF (10 ng/ml), IGF-1 50 ng/ml), and heparan sulfate (50 ng/ml)). The dissected and digested tissue is then triturated with a P200 pipette tip. Remove any cell aggregates and debris; transfer the cell suspension and wash through a pre-wetted 70 μm cell strainer to pool the cell suspension in a single fresh culture tube. Rinse dissociation tubes and the cell strainer with sufficient Medium A and pool with the cell suspension. Count cell density with hemocytometer or Countess® (Life Technologies). Add fresh Medium A to cell suspension to achieve a final plating density of 1.0E5 cell/ml and plate into ultra-low attachment cultureware, T-75 (Greiner).
The dissociated, single cells are cultured in an ultra-low attachment cultureware, (Greiner) in Medium A for 3 to 4 days in a 5% CO2 humidified incubator at 37° C. to obtain clonally grown spheres, termed first generation spheres, from the floating cells. If cells stick to the non-adherent dishes during the culture period they can be dislodged by gentle mixing.
After culturing the spheres for 3-4 days, visually count the spheres by microscope to standardize the seeding density of otic spheres per ml for this step. Collect the cells by centrifugation and re-suspend spheres in Basic Medium at a concentration of approximately 2000 spheres per ml. Seed the spheres in a volume of 150 μl per well of a cell culture-treated 96 well plate to obtain approximately 300 spheres per well. Treat the spheres with experimental agents in quadruplicate at a final volume of 200 μl in Basic Medium (DMEM/F12, N2 supplement (LifeTechnologies) B27 supplement (LifeTechnologies), ampicillin (50 μg/ml) and Fungizone (LifeTechnologies). Culture the treated spheres for 7 days in a humidified temperature controlled incubator at 5% CO2, 37° C. Remove medium and proceed with RNA extraction.
Add buffer RLT plus (Qiagen) supplemented with 1% Beta-mercaptoethanol, 175 μl per well. Add 2.5 μl of 4 ng/μl of RNA carrier (RNeasy® Plus Micro Kit; Qiagen) diluted in Buffer RLT Plus into each well before RNA extraction. Total RNA is extracted using the RNeasy® Plus Micro Kit (Qiagen) according to the manufacturer's instructions. […]
On the technique in general: Quantitative PCR measures a nucleic acid by following its amplification.

On to `COc1ccc2c(c1)N1CCC(C)(C)C1=CC(=O)C2NC(=O)[C@H](C)NC(=O)CCC(F)(F)F` (single isomer, unassigned) [Compound 1, Isomer 2], for which the IC50 in data set [1] is 0.37 nM. For the same compound, the “effect on cell number (cytotoxicity profiling)” value in data set [2] is “Neither compound affects cell number”. For the same compound, in data set [3], the “RQ at 10 nM (Atoh1 expression)” value was found to be 1.43 ± 0.17, the “RQ at 100 nM (Atoh1 expression)” value was 1.76 ± 0.17 and the “RQ at 1 μM (Atoh1 expression)” value is given as 1.64 ± 0.13.

Regarding `C[C@H](NC(=O)CCC(F)(F)F)C(=O)NC1C(=O)C=C2N(CCC2(C)C)c2ncccc21` (single isomer, unassigned) [Compound 2, Isomer 2], the IC50 in data set [1] was 1.55 nM. In data set [2], the “effect on cell number (cytotoxicity profiling)” value is on record as “Neither compound affects cell number”. Further, in data set [3], the “RQ at 10 nM (Atoh1 expression)” value was determined as 1.14 ± 0.07, the “RQ at 100 nM (Atoh1 expression)” value is on record as 1.21 ± 0.13 and the “RQ at 1 μM (Atoh1 expression)” value is given as 1.57 ± 0.11.
